We go through nine molecules from US11685732B2, “MYST family histone acetyltransferase inhibitors” (Epizyme, Inc., priority 2017, dated 2023).

Each structure is given as a SMILES string. Like-named read-outs stand apart in the source and are kept apart here.

One experiment deals with SEM cells. The experiment in a line: Long term proliferation assay (14-day), SEM. The conditions noted are these: 336 h, B-ALL, 14-day timepoint, absolute IC50. It counts as cell-based. How it is done: (§1) Long term proliferation assay. A panel of multiple myeloma (MM) and acute myeloid leukemia (AML) cell lines were tested in 14-day proliferation assays. Exponentially growing cells were plated, in triplicate, in 96-well plates at the appropriate cell density in a final volume of 150 μL. Cells were incubated in the presence of increasing concentrations of compound A-30. Viable cell number was determined at 0, 4, 7, 11, and 14 days using Calcein staining and using an Accumen instrument to enumerate the number of cells. On days of cell counts, growth media and compound A-30 were replaced, and cells split back to initial density. Total cell number is expressed as split-adjusted viable cells per well.
(§2) Calculations were performed as follows:
(§3) First, the inhibition of proliferation was calculated for each well at each treatment concentration at each timepoint with the following formula:
(§4) [formula] Then, for each cell line, concentration response curves were plotted as average and standard deviation from triplicate determinations as percent inhibition vs log of concentration of compound A-30. Absolute IC50 values (concentration of compound at which 50% inhibition occurs) were determined from the curve at each timepoint using Graphpad Prism software. An IC50 value of ≤10 μM is designated as “A”; an IC50 value of >10 μM is designated as “B”.

For the next experiment, the system named is KMS34 cells. The experiment in a line: Long term proliferation assay (14-day), KMS34. The conditions noted are these: KMS-34, 336 h; KMS34, MM; 14-day timepoint; absolute IC50. It counts as cell-based. How it is done:
as §1, §2, §3, §4

A further experiment relates to OCIAML2 cells. Description: Long term proliferation assay (14-day), OCIAML2. It counts as cell-based. The conditions noted are these: Homo sapiens, OCI-AML2, 336 h; OCIAML2, AML; 14-day timepoint; absolute IC50. How it is done:
as §1, §2, §3, §4

For the next experiment, the system named is KMS11 cells. Description: Long term proliferation assay (14-day), KMS11. It counts as cell-based. The conditions noted are these: Homo sapiens, KMS-11, 336 h; KMS11, MM; 14-day timepoint; absolute IC50. How it is done:
as §1, §2, §3, §4

For another experiment, the system named is LP1 cells. Description: Long term proliferation assay (14-day), LP1. It counts as cell-based. As to conditions: Homo sapiens, LP-1, 336 h; LP1, MM; 14-day timepoint; absolute IC50. How it is done: as §1, §2, §3, §4
The target of the next experiment is KAT-6A (Homo sapiens (Human), UniProt Q92794). The experiment in a line: KAT-6A biochemical inhibition assay (SAMDI mass spectrometry). In short, it runs like this: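 IC50 values came from SAMDI time-of-flight mass spectrometry after formic acid quench (0.5% final). Acetylation ran 90 min at 25 °C with 1 μM acetyl coenzyme A and 1 μM peptide substrate, following compound pre-incubation with 12.5 nM KAT-6A in Tris buffer pH 8.0 containing DTT, 2% DMSO final.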
Sequence of KAT-6A (Q92794 other isoform, or with tags, fused parts or gaps): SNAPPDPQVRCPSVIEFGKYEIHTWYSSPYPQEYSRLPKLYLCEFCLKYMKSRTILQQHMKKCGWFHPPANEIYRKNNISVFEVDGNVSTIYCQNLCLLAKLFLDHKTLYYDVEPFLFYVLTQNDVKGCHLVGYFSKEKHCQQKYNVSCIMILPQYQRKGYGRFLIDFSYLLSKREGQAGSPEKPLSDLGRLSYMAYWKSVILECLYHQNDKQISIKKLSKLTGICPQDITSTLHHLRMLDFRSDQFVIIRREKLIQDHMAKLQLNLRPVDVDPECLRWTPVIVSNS

Another experiment concerns RPMI8226 cells. The experiment in a line: Long term proliferation assay (14-day), RPMI8226. It counts as cell-based. The conditions noted are these: Homo sapiens, RPMI-8226, 336 h; RPMI8226, MM; 14-day timepoint; absolute IC50. How it is done: as §1, §2, §3, §4
For a further experiment, the target named is KAT-7 (Homo sapiens (Human), UniProt O95251). Description: KAT-7 biochemical inhibition assay (SAMDI mass spectrometry). In a few lines: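 Read-out was SAMDI time-of-flight MS of formic acid-quenched reactions (0.5% final). Compound dilutions (2% DMSO final) were pre-incubated with 6 nM KAT-7 in 50 mM Tris pH 8.0 with 1 mM DTT, then given 1 μM peptide substrate and 2 μM acetyl-CoA for 120 min at 25 °C. IC50 values were derived.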
Sequence of KAT-7 (O95251 other isoform, or with tags, fused parts or gaps): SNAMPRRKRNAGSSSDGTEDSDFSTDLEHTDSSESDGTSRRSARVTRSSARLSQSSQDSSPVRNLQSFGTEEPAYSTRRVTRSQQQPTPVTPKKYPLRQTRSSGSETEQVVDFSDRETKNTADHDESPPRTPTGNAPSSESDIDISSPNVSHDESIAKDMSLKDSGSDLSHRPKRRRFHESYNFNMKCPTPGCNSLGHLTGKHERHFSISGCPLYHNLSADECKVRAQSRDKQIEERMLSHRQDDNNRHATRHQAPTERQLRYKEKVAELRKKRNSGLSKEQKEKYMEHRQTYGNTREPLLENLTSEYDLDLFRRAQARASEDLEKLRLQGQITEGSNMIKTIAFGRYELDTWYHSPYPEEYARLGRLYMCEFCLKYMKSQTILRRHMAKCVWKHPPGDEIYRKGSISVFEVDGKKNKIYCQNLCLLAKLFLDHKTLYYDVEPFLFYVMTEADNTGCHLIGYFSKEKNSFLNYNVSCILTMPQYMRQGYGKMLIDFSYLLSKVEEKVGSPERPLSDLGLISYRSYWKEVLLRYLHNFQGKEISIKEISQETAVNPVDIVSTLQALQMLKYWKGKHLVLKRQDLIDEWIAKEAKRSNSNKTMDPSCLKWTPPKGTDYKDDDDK

The subject of a further experiment is NOMO1 cells. Description: Long term proliferation assay (14-day), NOMO1. As to conditions: Homo sapiens, NOMO-1, 336 h; NOMO1, AML; 14-day timepoint; absolute IC50. In kind it is cell-based. How it is done: as §1, §2, §3, §4
In experiment [1] the test system is H3K23 acetylation in CAL-120 cells. Description: Inhibition of acetylation of H3K23 in Human cell line CAL-120. It counts as cell-based. As to conditions: CAL-120 cell line, 3 hours, serial dilutions starting at 10 μM; FIG. 1. How it is done: Inhibition of acetylation of H3K23 in Human cell line CAL-120. Cell line CAL-120 was plated in eleven 10 cm tissue culture dishes at a cell density of 4×10^5 cells/cm^2 and treated with ten 2-fold serial dilutions of compound A-30 starting at 10 μM and one dish with DMSO (vehicle control) for 3 hours. Cells were tripsinized, washed twice with ice cold PBS and snap-frozen. Histones were extracted from cell pellets. Protein concentration was assessed and 60 ng of protein sample from histone extraction was prepared in triplicate in 100 μl coating buffer (0.05% w/v BSA in PBS) and added directly to high binding 96 well plates. Plates were left at 4° C. overnight to allow protein to adhere. Coating buffer with histones was discarded and plates blotted, and 100 μL per well of primary antibody solution of rabbit anti-H3K23ac antibody (Millipore 07-355) (1:600) and mouse anti-total H3 antibody (CST-14269) (1:500) in Odyssey buffer with 0.1% Tween 20 (v/v) was added to the wells of the plate and incubated for 1 hour. […]
Calculations were performed as follows: First, the ratio for each well was determined by:
[formula] Then, the average of the ratio values for each test well was calculated and used to determine the percent of H3K23Ac from vehicle for each test well in the plate: […]

A further experiment addresses KAT-5 (Homo sapiens (Human), UniProt Q92993). Description: KAT-5 biochemical inhibition assay (SAMDI mass spectrometry). In a few lines: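 Acetylation of 1 μM peptide by 9 nM enzyme with 0.5 μM acetyl-CoA (final) was run 90 min at 25° C in Tris pH 8.0 buffer with DTT, after compound preincubation at 2% DMSO. Formic acid stopped the reaction, and product was quantified by SAMDI mass spectrometry to derive IC50.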

Another experiment deals with MOLM13 cells. Description: Long term proliferation assay (14-day), MOLM13. In kind it is cell-based. The conditions noted are these: Homo sapiens, MOLM-13, 336 h; MOLM13, AML; 14-day timepoint; absolute IC50. How it is done: as §1, §2, §3, §4
For another experiment, the system named is THP1 cells. The experiment in a line: Long term proliferation assay (14-day), THP1. The conditions noted are these: Homo sapiens, THP-1, 336 h; THP1, AML; 14-day timepoint; absolute IC50. It counts as cell-based. How it is done: as §1, §2, §3, §4
Another experiment has as its system OCIAML3 cells. The experiment in a line: Long term proliferation assay (14-day), OCIAML3. It counts as cell-based. The conditions noted are these: Homo sapiens, OCI-AML-3, 336 h, 14-day timepoint, absolute IC50. How it is done:
as §1, §2, §3, §4

A further experiment addresses KAT-8 (Homo sapiens (Human), UniProt Q9H7Z6). Description: KAT-8 biochemical inhibition assay (SAMDI mass spectrometry). In a few lines:
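Acetylation of 1 μM peptide substrate with 5 μM acetyl-CoA by 12.5 nM enzyme, compound pre-incubated, 2% DMSO, Tris pH 8.0 buffer with DTT, 25 °C for 90 min. Quench with 0.5% formic acid; product read by SAMDI mass spectrometry to give IC50.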

Sequence of KAT-5 (Q92993 other isoform, or with tags, fused parts or gaps): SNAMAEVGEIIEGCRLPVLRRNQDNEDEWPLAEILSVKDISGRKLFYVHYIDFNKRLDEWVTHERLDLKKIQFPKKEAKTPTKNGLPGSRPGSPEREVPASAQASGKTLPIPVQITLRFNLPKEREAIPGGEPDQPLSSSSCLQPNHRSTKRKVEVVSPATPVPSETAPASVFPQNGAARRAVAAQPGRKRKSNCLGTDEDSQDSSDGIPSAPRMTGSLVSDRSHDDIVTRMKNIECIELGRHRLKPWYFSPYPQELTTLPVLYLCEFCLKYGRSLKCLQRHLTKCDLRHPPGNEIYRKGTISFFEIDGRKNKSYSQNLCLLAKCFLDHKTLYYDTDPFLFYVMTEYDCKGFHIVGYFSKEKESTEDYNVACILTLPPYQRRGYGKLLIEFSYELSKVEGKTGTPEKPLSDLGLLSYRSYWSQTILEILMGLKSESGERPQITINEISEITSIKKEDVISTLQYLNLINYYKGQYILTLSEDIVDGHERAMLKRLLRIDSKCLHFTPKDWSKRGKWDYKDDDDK
Sequence of KAT-8 (Q9H7Z6 other isoform, or with tags, fused parts or gaps): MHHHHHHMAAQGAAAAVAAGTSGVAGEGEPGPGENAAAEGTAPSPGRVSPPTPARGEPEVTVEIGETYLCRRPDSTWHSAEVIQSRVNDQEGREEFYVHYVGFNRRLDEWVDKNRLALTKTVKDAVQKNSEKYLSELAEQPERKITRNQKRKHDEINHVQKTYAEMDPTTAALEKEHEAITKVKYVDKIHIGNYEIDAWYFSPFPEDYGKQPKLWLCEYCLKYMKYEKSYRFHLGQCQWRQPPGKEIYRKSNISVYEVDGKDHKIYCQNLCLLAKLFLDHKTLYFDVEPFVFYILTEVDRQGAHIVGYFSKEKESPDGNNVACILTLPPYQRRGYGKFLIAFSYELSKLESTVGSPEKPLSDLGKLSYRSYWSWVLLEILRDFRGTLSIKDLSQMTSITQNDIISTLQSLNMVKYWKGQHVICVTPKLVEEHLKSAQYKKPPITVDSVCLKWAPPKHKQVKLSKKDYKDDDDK

One may read the IC50 as the concentration at which inhibition is half-maximal. A lower IC50 goes with higher potency. In the case of `COCc1cc(Cl)c(F)c(C(=O)NNS(=O)(=O)c2cccc(O)c2)c1` [Compound A-30], the IC50 with SEM cells was over 10 µM; in the experiment on KMS34 cells, at most 10 µM; in the experiment on OCIAML2 cells, over 10 µM; in the experiment on KMS11 cells, at most 10 µM; with LP1 cells, at most 10 µM; on KAT-6A (Table 5) it was at most 1 µM. The IC50 in the experiment with RPMI8226 cells is at most 10 µM; at KAT-7 (Table 5), at most 10 µM; in the experiment on NOMO1 cells, at most 10 µM; against KAT-5 (Table 5), at most 10 µM; in the experiment with MOLM13 cells it was over 10 µM; with THP1 cells, over 10 µM. In addition, in the experiment with OCIAML3 cells, the IC50 is at most 10 µM. The “inhibition of acetylation of H3K23” value in experiment [1] is “inhibition of acetylation of H3 K23”.

Consider `CNc1ccc(S(=O)(=O)NNC(=O)c2cc(-c3cn(C)cn3)cc(Cl)c2F)cc1` [Compound I-382], for which the half-maximal inhibitory concentration (IC50) at KAT-6A is under 10 µM; on KAT-7, under 10 µM; at KAT-5, 10 to 50 µM; at KAT-8 it was over 100 µM.

In the case of `Cn1cnc(-c2cc(Cl)c(F)c(C(=O)NNS(=O)(=O)CC3CCc4ccccc4C3)c2)c1` (stereo not shown) [Compound I-383], the IC50 is under 10 µM against KAT-6A, under 10 µM on KAT-7, under 10 µM at KAT-5 and 10 to 50 µM against KAT-8.

On to `Cn1cnc(-c2cc(Cl)c(F)c(C(=O)NNS(=O)(=O)CC3CCCCC3O)c2)c1` (stereo not shown) [Compound I-384], for which the IC50 against KAT-6A was 10 to 50 µM; at KAT-7 it was under 10 µM; at KAT-5 it was under 10 µM; at KAT-8, 50 to 100 µM.

Regarding `CNc1ccccc1S(=O)(=O)NNC(=O)c1cc(-c2cn(C)cn2)cc(Cl)c1F` [Compound I-385], the concentration for half-maximal inhibition (IC50) on KAT-6A is under 10 µM; against KAT-7 it was under 10 µM; at KAT-5 it was under 10 µM; at KAT-8 it was over 100 µM.

Regarding `COC1CCC(CS(=O)(=O)NNC(=O)c2cc(-c3cn(C)cn3)cc(Cl)c2F)C1` (stereo not shown) [Compound I-387], the concentration for half-maximal inhibition (IC50) against KAT-6A was under 10 µM; against KAT-7 it was under 10 µM; on KAT-5, under 10 µM; on KAT-8, 50 to 100 µM.

Regarding `Cn1cnc(-c2cc(Cl)c(F)c(C(=O)NNS(=O)(=O)C[C@H]3CCCO3)c2)c1` [Compound I-388], the IC50 against KAT-6A was under 10 µM; at KAT-7, under 10 µM; against KAT-5, under 10 µM; against KAT-8, over 100 µM.

On to `Cn1cnc(-c2cc(Cl)c(F)c(C(=O)NNS(=O)(=O)C[C@@H]3CCCO3)c2)c1` [Compound I-389], for which the concentration for half-maximal inhibition (IC50) against KAT-6A is under 10 µM; against KAT-7, under 10 µM; at KAT-5, under 10 µM; on KAT-8 it was over 100 µM.

As for `Cc1cc(-c2ccccc2)cc(C(=O)NNS(=O)(=O)CC2CCCNC2)c1F` (stereo not shown) [D, reference compound], the concentration for half-maximal inhibition (IC50) at KAT-6A (Table 6, comparative compounds) is over 100 µM; at KAT-7 (Table 6, comparative compounds), over 100 µM; at KAT-5 (Table 6, comparative compounds), 10 to 50 µM; at KAT-8 (Table 6, comparative compounds) it was over 100 µM.
